{"source": "patent US10259815B2", "about": "“Gabaergic ligands and their uses” (UWM Research Foundation, Inc., priority 2015, dated 2019)", "key": {"[1]": {"experiment": "Liver microsomal stability, human", "type": "in vitro ADME", "details": "37° C., 4 μM compound, 30 minutes", "method": "(§1) In vitro metabolism studies were done in mouse, rat, human, and dogs cells (TABLE 2).\n(§2) In vitro liver microsomal studies were completed to measure the stability of the compounds against degradation in various species' liver microsomes.\n(§3) Compound was incubated in hepatic microsomes over a 30-minute incubation period at 37° C. Incubations both with and without NADPH (2 mM) were performed in a 96-well plate format. The reaction was initiated with the addition of substrate and was terminated by protein precipitation. All incubations were performed using a final substrate concentration of 4 μM in 50 mM sodium phosphate buffer, pH 7.4. The final organic solvent content was 0.5% acetonitrile and 0.02% DMSO. The amount of enzyme present was fixed at 1.11 mg/mL protein irrespective of the species of microsomes used. Samples were analyzed by LC/MS-MS to determine the percent loss in the NAPDH incubations relative to the NADPH free incubations."}, "Male Sprague-Dawley rats [2]": {"test_system": "Male Sprague-Dawley rats", "experiment": "scMET-induced seizure protection, rats", "type": "in vivo", "details": "pentylenetetrazole 35 mg/kg", "method": "A 35 mg/kg subcutaneous dose of pentylenetetrazole was given and the percent outcome of seizure was recorded. Results were analyzed using ANOVA (Dunnett's test: *P<0.05).\nTest subjects were given a test compound, followed by a 35 mg/kg dose of MET and observed for convulsions (FIG. 7).\n(§4) Results were analyzed using ANOVA (Dunnett's test: *P<0.05)."}, "[3]": {"experiment": "Liver microsomal stability, mouse", "type": "in vitro ADME", "details": "37° C., 4 μM compound, 30 minutes", "method": "as §1, §2, §3"}, "Male CD-1 mice [4]": {"test_system": "Male CD-1 mice", "experiment": "Maximal electroshock (MES)-induced convulsion protection", "type": "in vivo", "details": "i.p. 30 minutes prior to test", "method": "Male CD-1 mice (n=10) were dosed i.p. 30 minutes prior to being tested. Results were analyzed using ANOVA (Dunnett's test versus vehicle: *P<0.05).\nThe maximal electroshock (MES) assay is designed to determine how well a test compound can prevent seizures induced by applying a voltage stimuli to a mouse.\nMice were subjected to electrical induced tonic seizures and examined for anticonvulsant effects 30 minutes after treatment. Mice were then given a 7 mA electroshock using a Wahlquist Model H for 0.2 seconds and observed for the presence or absence of seizure activity. Each mouse is tested only once and euthanized immediately following the test."}, "Male Sprague-Dawley rats [5]": {"test_system": "Male Sprague-Dawley rats", "details": "previously shown; species not stated; cited from earlier work"}, "[6]": {"experiment": "Pharmacokinetics after 10 mg/kg P.O. dose, mice", "type": "in vivo", "details": "mouse, blood, po", "excerpt": "Although these are different species, the numbers can still be compared."}, "Male NIH Swiss mice": {"test_system": "Male NIH Swiss mice", "details": "previously shown; cited from earlier work"}, "Male Sprague-Dawley rats [7]": {"test_system": "Male Sprague-Dawley rats", "experiment": "PTZ-induced seizure threshold", "type": "in vivo", "details": "test compound 3 to 60 mg/kg, diazepam 0.1 to 1 mg/kg i.p.", "method": "as §4\nAfter a pretreatment of test compound, MET was intravenously administered to a test subject until a convulsions were observed.\nEach animal was used only once and was euthanized post testing. Results were analyzed using ANOVA (Dunnett's test: *P<0.05)."}, "Male Sprague-Dawley rats [8]": {"test_system": "Male Sprague-Dawley rats", "details": "has been shown; cited from earlier work"}, "Sprague Dawley male rats": {"test_system": "Sprague Dawley male rats", "experiment": "Mechanical hyperalgesia (von Frey) in CFA-induced inflammatory pain rat model", "type": "in vivo", "details": "cumulative i.p. dosing, 3 days after CFA", "method": "Raw data (paw withdrawal threshold, expressed in g of von Frey filament) was converted to a maximal possible effect value according the following equation: % MPE=[(test threshold(g)−control threshold(g)/(pre-CFA threshold−control threshold)]×100.\nComplete Freund's adjuvant (CFA) contains Mycobacterium butyricum, inducing inflammation and an increase in paw thickness. 0.1 mL of CFA was injected in the right hind paw of Sprague Dawley male rats under isoflurane anaesthesia.\nMechanical hyperalgesia. Mechanical hyperalgesia was measured 3 days after CFA treatment. Rats (n=6) were placed in elevated boxes with a mesh floor. Von Frey filaments (expressed in g) were applied perpendicularly to the hindpaws, starting with the lowest filament (1.4 g) then increased until hindpaw withdrawal was observed. After each measurement, rats received the next dose of drug (every 20 min) until the maximum threshold (26 g) was observed. For the antagonist study, rats were pretreated with the benzodiazepine site antagonist flumazenil (10 min) and then received the next dose of drug (every 20 min) until the pre-CFA threshold was observed.\nDrugs. The following drugs were used: HZ166, KRM-II-18B, and KRM-II-81, and were dissolved in a mixture containing 20% Dimethyl sulfoxide (DMSO), 10% Emulphor-620 (Rhodia Inc.), and 70% of 0.9% saline. Flumazenil (purchased from Cayman Chemical Company, MI) was dissolved in a mixture containing 10% ethanol, 40% propylene glycol, and 50% sterile water. Midazolam (Akorn, Inc.) was dissolved in 0.9% saline. Doses were expressed as the weight of the drug in milligrams per kilogram of body weight and drugs were administered intraperitoneally."}, "[9]": {"experiment": "Liver microsomal stability, dog", "type": "in vitro ADME", "details": "37° C., 4 μM compound, 30 minutes", "method": "as §1, §2, §3"}, "Male CD-1 mice [10]": {"test_system": "Male CD-1 mice", "details": "previously shown; cited from earlier work"}, "Male Sprague-Dawley rats [11]": {"test_system": "Male Sprague-Dawley rats", "experiment": "Inverted screen test (muscle relaxation)", "type": "in vivo", "details": "for muscle relaxation / motor impairment in inverted screen: i.p. 30 minutes prior, diazepam 3, 10, 30 mg/kg, KRM-II-81 10, 30, 60 mg/kg, HZ-166 30 mg/kg", "method": "as §4\nThe inverted screen test is used to measure whether or not a test compound induces muscle relaxation. When a test subject is placed on a wire screen which is then inverted, the reaction is to climb to the opposite side so they are no longer hanging upside down. If a compound promotes muscle relaxation, the test subjects will either fall off, or hang onto the screen without being able to climb to the opposite side.\nRats were placed onto the top of a wire screen, which was then inverted so that the rats were hanging upside down. […] Results were analyzed using ANOVA (Dunnett's test: *P<0.05)."}, "[12]": {"experiment": "Liver microsomal stability, rat", "type": "in vitro ADME", "details": "37° C., 4 μM compound, 30 minutes", "method": "as §1, §2, §3"}, "rhesus monkeys": {"test_system": "rhesus monkeys", "details": "previously shown; cited from earlier work"}, "GABAA/α1 receptors": {"molecular_target": "GABAA/α1 receptors (Homo sapiens, UniProt P14867+P18507)", "sequence (P14867 28-456)": "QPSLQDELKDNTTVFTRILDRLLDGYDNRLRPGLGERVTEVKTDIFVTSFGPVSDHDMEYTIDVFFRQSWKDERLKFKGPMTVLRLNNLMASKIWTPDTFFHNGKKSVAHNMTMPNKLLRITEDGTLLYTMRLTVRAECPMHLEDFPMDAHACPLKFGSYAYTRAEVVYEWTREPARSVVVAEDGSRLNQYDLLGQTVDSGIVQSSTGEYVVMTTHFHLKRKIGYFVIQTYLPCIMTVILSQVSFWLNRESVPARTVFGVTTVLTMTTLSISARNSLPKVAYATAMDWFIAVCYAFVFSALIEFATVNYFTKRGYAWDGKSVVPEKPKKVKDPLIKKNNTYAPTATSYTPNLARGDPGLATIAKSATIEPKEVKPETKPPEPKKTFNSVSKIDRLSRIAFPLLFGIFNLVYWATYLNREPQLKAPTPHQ", "sequence (P28472 26-473 partner)": "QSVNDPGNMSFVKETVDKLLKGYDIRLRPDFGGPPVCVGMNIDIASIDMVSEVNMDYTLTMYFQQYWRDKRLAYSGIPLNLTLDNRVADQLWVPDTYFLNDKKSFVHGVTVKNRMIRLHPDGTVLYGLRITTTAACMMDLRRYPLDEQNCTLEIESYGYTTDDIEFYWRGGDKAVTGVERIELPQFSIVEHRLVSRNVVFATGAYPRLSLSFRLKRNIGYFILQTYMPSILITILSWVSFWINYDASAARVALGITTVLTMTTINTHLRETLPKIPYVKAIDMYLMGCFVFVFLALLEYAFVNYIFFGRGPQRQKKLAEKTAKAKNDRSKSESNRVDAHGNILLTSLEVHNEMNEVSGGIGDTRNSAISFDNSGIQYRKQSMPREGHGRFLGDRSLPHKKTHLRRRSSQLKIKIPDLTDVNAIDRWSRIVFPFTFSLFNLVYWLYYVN", "sequence (P18507 40-475)": "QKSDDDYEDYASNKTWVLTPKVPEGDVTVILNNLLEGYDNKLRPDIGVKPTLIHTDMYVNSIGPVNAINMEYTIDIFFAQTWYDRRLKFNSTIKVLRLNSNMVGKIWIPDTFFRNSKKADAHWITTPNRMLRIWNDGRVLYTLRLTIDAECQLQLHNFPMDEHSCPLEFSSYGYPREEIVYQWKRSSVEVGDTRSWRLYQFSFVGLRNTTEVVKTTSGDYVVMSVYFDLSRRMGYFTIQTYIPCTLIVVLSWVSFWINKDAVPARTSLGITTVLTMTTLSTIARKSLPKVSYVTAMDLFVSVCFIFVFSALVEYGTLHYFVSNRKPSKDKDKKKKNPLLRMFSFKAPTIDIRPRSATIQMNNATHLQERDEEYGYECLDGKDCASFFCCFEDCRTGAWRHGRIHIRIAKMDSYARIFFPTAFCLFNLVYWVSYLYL", "details": "as disclosed in Huang, et al., J. Med. Chem. 2000; cited from earlier work"}, "GABAA/α5 receptors": {"molecular_target": "GABAA/α5 receptors (Homo sapiens, UniProt P18507+P31644)", "sequence (P31644 32-462)": "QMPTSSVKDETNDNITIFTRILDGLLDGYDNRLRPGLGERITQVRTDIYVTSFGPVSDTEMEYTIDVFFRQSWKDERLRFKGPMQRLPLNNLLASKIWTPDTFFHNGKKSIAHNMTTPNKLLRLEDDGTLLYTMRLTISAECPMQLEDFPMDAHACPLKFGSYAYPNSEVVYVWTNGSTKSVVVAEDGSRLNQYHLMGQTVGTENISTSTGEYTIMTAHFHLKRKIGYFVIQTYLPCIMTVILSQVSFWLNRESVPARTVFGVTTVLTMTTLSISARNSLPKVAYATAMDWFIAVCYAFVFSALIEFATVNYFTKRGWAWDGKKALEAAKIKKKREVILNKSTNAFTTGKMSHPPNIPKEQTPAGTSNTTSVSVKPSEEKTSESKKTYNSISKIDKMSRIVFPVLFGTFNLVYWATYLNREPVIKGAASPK", "sequence (P28472 26-473 partner)": "as the sequence (P28472 26-473 partner) above", "sequence (P18507 40-475)": "as the sequence (P18507 40-475) above", "details": "as disclosed in Huang, et al., J. Med. Chem. 2000; cited from earlier work"}, "GABAA/α2": {"molecular_target": "GABAA/α2 (Homo sapiens, UniProt P18507+P47869)", "sequence (P47869 29-451)": "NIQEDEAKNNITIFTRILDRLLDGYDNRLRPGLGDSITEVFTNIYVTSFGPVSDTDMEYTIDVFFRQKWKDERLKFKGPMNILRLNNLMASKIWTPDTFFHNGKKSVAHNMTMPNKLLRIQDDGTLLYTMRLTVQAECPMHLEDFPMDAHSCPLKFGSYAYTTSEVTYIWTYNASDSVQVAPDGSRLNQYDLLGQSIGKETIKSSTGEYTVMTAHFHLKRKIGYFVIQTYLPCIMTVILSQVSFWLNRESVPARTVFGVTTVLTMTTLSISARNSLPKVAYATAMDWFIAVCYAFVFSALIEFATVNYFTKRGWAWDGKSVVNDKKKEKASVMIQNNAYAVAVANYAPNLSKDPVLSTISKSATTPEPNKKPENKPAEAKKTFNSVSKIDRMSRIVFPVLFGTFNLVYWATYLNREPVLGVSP", "sequence (P28472 26-473 partner)": "as the sequence (P28472 26-473 partner) above", "sequence (P18507 40-475)": "as the sequence (P18507 40-475) above", "details": "as disclosed in Huang, et al., J. Med. Chem. 2000; cited from earlier work"}, "GABAA/α3": {"molecular_target": "GABAA/α3 (Homo sapiens, UniProt P18507+P34903)", "sequence (P34903 29-492)": "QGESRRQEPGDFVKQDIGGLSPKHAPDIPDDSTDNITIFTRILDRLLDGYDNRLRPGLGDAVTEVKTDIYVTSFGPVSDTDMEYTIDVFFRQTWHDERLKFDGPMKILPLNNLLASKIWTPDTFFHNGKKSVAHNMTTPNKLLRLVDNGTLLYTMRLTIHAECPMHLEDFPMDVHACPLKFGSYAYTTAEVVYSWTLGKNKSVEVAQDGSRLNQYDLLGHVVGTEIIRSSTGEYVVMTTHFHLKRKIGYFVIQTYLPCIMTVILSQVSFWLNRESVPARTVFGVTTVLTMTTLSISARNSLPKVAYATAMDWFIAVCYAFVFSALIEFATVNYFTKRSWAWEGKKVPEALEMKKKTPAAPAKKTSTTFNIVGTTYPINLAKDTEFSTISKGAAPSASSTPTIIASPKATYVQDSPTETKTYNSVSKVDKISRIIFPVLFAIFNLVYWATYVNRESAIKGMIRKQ", "sequence (P28472 26-473 partner)": "as the sequence (P28472 26-473 partner) above", "sequence (P18507 40-475)": "as the sequence (P18507 40-475) above", "details": "as disclosed in Huang, et al., J. Med. Chem. 2000; cited from earlier work"}}}
{"smiles": "C#Cc1ccc2c(c1)C(c1ccccn1)=NCc1c(C(=O)OCC)ncn1-2", "note": "[HZ-166, Ethyl-8-ethynyl-6-(pyridin-2-yl)-4H-benzo[f]imidazo[1,5-a][1,4]diazepine-3-carboxylate]", "values": [{"measurement": "Human Liver microsome stability (reported in % remaining)", "setting": "[1]", "value": 80, "unit": "% remaining"}, {"measurement": "effect against scMET seizures at 30 mg/kg", "setting": "Male Sprague-Dawley rats [2]; 30 mg/kg i.p.", "value": "little effect"}, {"measurement": "Mouse Liver microsome stability (reported in % remaining)", "setting": "[3]", "value": 54, "unit": "% remaining"}, {"measurement": "protection against MES-induced seizures", "setting": "Male CD-1 mice [4]", "value": "did not"}, {"measurement": "protection against scMET-induced seizures", "setting": "Male Sprague-Dawley rats [5]", "value": "giving protection against scMET-induced seizures"}, {"measurement": "Tmax", "setting": "[6]", "value": 5.58, "unit": "h"}, {"measurement": "Cmax", "setting": "[6]; read-out: Cmax (highest concentration found in blood)", "value": 4.11, "unit": "ng/mL"}, {"measurement": "doses with no ataxic complications", "setting": "Male NIH Swiss mice", "value": "over 100 mg/kg"}, {"measurement": "effect on seizure threshold to PTZ", "setting": "Male Sprague-Dawley rats [7]", "value": "little protection"}, {"measurement": "performance in von Frey filament assay", "setting": "Male Sprague-Dawley rats [8]", "value": "perform well in this assay"}, {"measurement": "mechanical hyperalgesia in CFA-induced inflammatory pain", "setting": "Sprague Dawley male rats", "value": "dose-dependently attenuated mechanical hyperalgesia"}, {"measurement": "Dog Liver microsome stability (reported in % remaining)", "setting": "[9]", "value": 97, "unit": "% remaining"}, {"measurement": "effectiveness in MES assay", "setting": "Male CD-1 mice [10]", "value": "effective in this assay"}, {"measurement": "muscle relaxation / motor impairment in inverted screen", "setting": "Male Sprague-Dawley rats [11]", "value": "Neither HZ-166 nor KRM-II-81 induced significant muscle relaxation"}, {"measurement": "dose at which signs of muscle relaxation began to appear", "setting": "Male Sprague-Dawley rats [11]; i.p., inverted screen", "value": 30, "unit": "mg/kg"}, {"measurement": "Rat Liver microsome stability (reported in % remaining)", "setting": "[12]", "value": 50, "unit": "% remaining"}, {"measurement": "effectiveness in conflict procedure", "setting": "rhesus monkeys", "value": "effective in rhesus monkeys"}]}
{"smiles": "C#Cc1ccc2c(c1)C(c1ccccc1)=NCC(=O)N2C", "note": "[QH-ii-066]", "values": [{"measurement": "Ki", "setting": "GABAA/α1 receptors", "value": "> 70", "unit": "nM"}, {"measurement": "Ki", "setting": "GABAA/α5 receptors", "value": "< 10", "unit": "nM"}, {"measurement": "Ki", "setting": "GABAA/α2", "value": "< 50", "unit": "nM"}, {"measurement": "Ki", "setting": "GABAA/α3", "value": "< 50", "unit": "nM"}]}
{"smiles": "CN1C(=O)CN=C(c2ccccc2)c2cc(Cl)ccc21", "note": "[diazepam, reference compound]", "values": [{"measurement": "dose achieving significant protection against scMET seizures", "setting": "Male Sprague-Dawley rats [2]; i.p. 30 minutes prior", "value": 10, "unit": "mg/kg"}, {"measurement": "protection against MES-induced seizures", "setting": "Male CD-1 mice [4]", "value": "fully protected against seizure induction"}, {"measurement": "effect on seizure threshold to PTZ", "setting": "Male Sprague-Dawley rats [7]", "value": "significantly increased the seizure threshold to PTZ"}, {"measurement": "muscle relaxation / motor impairment in inverted screen", "setting": "Male Sprague-Dawley rats [11]", "value": "produced full motor impairment"}]}
